In general, IC50 refers to the midpoint of a concentration-inhibition curve. A higher IC50 goes with weaker potency in that assay.

Format in all cases: cell-based
One assay deals with T1, human TLR7 (Homo sapiens, UniProt Q9NYK1).
T1 construct: host or cells: HEK-Blue cells
T1 sequence (Q9NYK1 27-1049): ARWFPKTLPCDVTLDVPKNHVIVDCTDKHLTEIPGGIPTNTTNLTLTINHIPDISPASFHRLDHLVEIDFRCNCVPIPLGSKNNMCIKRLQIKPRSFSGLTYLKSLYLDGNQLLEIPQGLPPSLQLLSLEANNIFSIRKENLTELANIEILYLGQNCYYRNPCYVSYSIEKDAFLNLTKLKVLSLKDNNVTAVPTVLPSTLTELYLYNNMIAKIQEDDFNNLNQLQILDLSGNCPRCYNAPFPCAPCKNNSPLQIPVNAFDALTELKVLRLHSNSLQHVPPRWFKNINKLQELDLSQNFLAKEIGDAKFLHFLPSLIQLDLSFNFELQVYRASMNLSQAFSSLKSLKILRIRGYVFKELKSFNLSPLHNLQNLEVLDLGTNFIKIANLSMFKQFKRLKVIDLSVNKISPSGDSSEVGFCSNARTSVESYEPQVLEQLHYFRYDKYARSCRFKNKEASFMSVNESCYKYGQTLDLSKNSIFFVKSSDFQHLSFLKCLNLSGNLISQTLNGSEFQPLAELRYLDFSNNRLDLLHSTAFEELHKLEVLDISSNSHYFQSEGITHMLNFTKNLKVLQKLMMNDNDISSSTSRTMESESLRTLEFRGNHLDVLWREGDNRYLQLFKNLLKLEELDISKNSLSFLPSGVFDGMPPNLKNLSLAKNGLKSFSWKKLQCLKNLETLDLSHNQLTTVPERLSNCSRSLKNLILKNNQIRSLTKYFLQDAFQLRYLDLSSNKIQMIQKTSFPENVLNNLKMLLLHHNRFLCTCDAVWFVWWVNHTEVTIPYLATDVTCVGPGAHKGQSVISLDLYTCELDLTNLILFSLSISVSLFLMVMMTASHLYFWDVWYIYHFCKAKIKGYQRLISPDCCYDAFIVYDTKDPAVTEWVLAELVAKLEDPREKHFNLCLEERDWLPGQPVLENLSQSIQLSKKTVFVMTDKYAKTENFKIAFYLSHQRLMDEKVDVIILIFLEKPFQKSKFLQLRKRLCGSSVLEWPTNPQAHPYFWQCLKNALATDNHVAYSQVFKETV
In words: TLR7 inhibition reporter assay (HEK-Blue cells, SEAP reporter, gardiquimod stimulation). To be noted: HEK-Blue cells overexpressing human TLR7, SEAP reporter, gardiquimod 7.5 μM. The method in brief: (§1)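 Ligand levels: TLR7 gardiquimod 7.5 μM, TLR8 R848 15.9 μM, TLR9 ODN2006 5 nM, added after 30 min room-temperature compound pre-incubation at 0.05 nM-50 μM. Reporter SEAP read with HEK-Blue Detection reagent after 22 h, 37° C. Inhibition expressed as % reduction relative to agonist-plus-DMSO and known-inhibitor controls.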
(A reporter such as luciferase makes a cellular process visible.)

A further assay concerns the target T2, human TLR9 (Homo sapiens, UniProt Q9NR96).
T2 construct: host or cells: HEK-Blue cells
T2 sequence (Q9NR96 26-1032): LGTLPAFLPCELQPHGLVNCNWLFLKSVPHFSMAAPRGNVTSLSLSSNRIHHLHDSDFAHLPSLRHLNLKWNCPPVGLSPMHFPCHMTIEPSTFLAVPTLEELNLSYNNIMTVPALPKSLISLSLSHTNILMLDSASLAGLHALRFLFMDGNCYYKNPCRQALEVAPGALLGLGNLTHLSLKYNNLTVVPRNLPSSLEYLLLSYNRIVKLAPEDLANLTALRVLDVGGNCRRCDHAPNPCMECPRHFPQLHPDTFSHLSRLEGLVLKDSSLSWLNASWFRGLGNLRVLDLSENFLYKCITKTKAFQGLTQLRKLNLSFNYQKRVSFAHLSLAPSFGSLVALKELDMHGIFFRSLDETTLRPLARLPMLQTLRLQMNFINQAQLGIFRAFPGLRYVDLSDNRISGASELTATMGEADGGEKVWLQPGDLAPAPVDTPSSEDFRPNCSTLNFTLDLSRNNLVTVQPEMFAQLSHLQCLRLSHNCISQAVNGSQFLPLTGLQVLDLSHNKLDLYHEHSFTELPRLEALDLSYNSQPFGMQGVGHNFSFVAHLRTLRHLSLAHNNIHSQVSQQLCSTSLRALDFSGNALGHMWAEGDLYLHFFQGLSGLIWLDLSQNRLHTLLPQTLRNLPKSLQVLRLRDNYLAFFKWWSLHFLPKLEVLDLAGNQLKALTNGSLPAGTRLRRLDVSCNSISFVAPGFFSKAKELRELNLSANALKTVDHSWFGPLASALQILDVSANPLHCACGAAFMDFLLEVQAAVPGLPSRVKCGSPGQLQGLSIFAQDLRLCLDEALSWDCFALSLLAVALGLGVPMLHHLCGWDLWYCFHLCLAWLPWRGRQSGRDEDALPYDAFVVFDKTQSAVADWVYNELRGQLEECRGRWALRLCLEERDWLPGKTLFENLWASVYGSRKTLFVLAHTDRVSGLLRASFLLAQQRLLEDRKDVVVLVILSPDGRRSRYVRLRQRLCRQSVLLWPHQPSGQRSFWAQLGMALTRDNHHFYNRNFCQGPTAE
In words: TLR9 inhibition reporter assay (HEK-Blue cells, SEAP reporter, ODN2006 stimulation). The conditions noted are these: HEK-Blue cells overexpressing human TLR9, SEAP reporter, ODN2006 5 nM. The method in brief: as §1

In another assay the target is T3, human TLR8 (Homo sapiens, UniProt Q9NR97).
T3 construct: host or cells: HEK-Blue cells
T3 sequence (Q9NR97 27-1041): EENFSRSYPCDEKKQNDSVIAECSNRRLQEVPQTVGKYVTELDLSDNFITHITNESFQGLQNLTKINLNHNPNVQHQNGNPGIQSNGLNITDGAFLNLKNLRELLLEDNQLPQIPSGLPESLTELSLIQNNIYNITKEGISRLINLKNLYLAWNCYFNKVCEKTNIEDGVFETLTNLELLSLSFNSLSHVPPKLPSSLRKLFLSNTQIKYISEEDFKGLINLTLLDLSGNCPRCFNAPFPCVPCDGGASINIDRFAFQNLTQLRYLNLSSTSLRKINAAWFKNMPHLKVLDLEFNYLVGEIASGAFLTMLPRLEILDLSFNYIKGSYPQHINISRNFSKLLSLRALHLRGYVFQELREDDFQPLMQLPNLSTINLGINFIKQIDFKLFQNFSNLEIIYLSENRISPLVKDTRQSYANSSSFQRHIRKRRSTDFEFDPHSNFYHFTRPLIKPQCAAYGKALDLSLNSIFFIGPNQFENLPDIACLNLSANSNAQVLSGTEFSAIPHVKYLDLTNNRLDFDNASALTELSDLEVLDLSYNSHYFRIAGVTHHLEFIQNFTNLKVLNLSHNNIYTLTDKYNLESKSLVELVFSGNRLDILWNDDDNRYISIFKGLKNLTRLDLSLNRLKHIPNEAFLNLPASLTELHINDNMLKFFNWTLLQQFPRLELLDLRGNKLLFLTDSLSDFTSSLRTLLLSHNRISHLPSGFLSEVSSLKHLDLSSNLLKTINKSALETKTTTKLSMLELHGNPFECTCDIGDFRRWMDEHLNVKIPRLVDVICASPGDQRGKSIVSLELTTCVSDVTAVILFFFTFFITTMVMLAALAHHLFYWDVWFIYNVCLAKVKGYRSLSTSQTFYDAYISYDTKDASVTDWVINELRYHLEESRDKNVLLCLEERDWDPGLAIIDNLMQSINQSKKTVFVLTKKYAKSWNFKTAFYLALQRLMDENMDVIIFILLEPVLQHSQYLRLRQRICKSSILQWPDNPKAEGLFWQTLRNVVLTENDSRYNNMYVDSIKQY
The experiment in a line: TLR8 inhibition reporter assay (HEK-Blue cells, SEAP reporter, R848 stimulation). To be noted: HEK-Blue cells overexpressing human TLR8, SEAP reporter, R848 15.9 μM. A digest of the protocol:
as §1

The structures appear in SMILES notation.

Turning to `Cc1cc(-c2[nH]c3ccc(C4CN(CC(C)(C)O)CCO4)cc3c2C(C)C)cn2ncnc12` (single isomer, unassigned) [Example 356], the figures for the IC50 against human TLR7, on human TLR9 and on human TLR8 were 0.006 µM, 6.99 µM and 0.0046 µM, respectively.
Taken in the same sequence, the figures for `Cc1cc(-c2[nH]c3ccc(C4CCC(N(C)C)CC4)cc3c2C(C)C)cc(C)n1` (single isomer, unassigned) [Example 114] were 0.004 µM, 0.515 µM and 0.02 µM.
Taken in the same sequence, the figures for `COc1cc(-c2[nH]c3ccc(C4CCC(C)(NC(=O)CN(C)C)CC4)cc3c2C(C)C)cn2ncnc12` (stereo not drawn) [Example 154, 2-(dimethylamino)-N-(4-(3-isopropyl-2-(8-methoxy-[1,2,4]triazolo[1,5-a]pyridin-6-yl)-1H-indol-5-yl)-1-methylcyclohexyl)acetamide] were 0.004 µM, 5.68 µM and 0.012 µM.
Taken in the same sequence, the figures for `COc1cc(-c2[nH]c3ccc(C4CNC(C)(C)CO4)cc3c2C(C)C)cn2ncnc12` (stereo not drawn) [Example 368] were 0.00045 µM, 2.48 µM and 0.0016 µM.
Consider `COc1cc(-c2[nH]c3ccc(CC4CN(CCS(C)(=O)=O)C4)cc3c2C(C)C)cn2ncnc12` [Example 431], for which the concentration for half-maximal inhibition (IC50) at human TLR7 was found to be 0.002 µM; against human TLR9, 2.77 µM; against human TLR8, 0.0035 µM.
On to `COc1cc(-c2[nH]c3ccc(C4CCCN(CC(N)=O)C4)cc3c2C(C)C)cn2ncnc12` (stereo not drawn) [Example 234], for which the results for the IC50 against human TLR7, against human TLR9 and at human TLR8 were 0.003 µM, 7.37 µM and 0.0057 µM, respectively.
As for `COc1ccc(-c2[nH]c3ccc(C4CCC(O)CC4)cc3c2C(C)C)cc1OC` (stereo not drawn) [Example 451], the 50% inhibitory concentration (IC50) against human TLR7 amounted to 0.139 µM; at human TLR9 it was 19.5 µM; against human TLR8 it was 0.238 µM.
Taken in the same sequence, the figures for `Cc1cc(-c2[nH]c3ccc(C4CN(CC(=O)N(C)C)CCO4)cc3c2C(C)C)cn2ncnc12` (single isomer, unassigned) [Example 308] were 0.008 µM, over 50 µM and 0.018 µM.
`CNCC(=O)N1CC(c2ccc3[nH]c(-c4cc(C)c5ncnn5c4)c(C(C)C)c3c2)C1` [Example 267, 1-(3-(3-isopropyl-2-(8-methyl-[1,2,4]triazolo[1,5-a]pyridin-6-yl)-1H-indol-5-yl)azetidin-1-yl)-2-(methylamino)ethan-1-one]: the IC50 worked out at 0.00096 µM against human TLR7, 2 µM against human TLR9 and 0.0055 µM against human TLR8.
Taken in the same sequence, the figures for `Cc1cc(-c2[nH]c3ccc(C4CN(C(=O)CN(C)C)C(C)(C)CO4)cc3c2C(C)C)cn2ncnc12` (single isomer, unassigned) [Example 373, 2-(dimethylamino)-1-(2-(3-isopropyl-2-(8-methyl-[1,2,4]triazolo[1,5-a]pyridin-6-yl)-1H-indol-5-yl)-5,5-dimethylmorpholino)ethanone] were 0.006 µM, over 50 µM and 0.036 µM.
Taken in the same sequence, the figures for `Cc1cc(-c2[nH]c3ccc([C@H]4C[C@H]4C(=O)N4CC5CNCC5C4)cc3c2C(C)C)ccn1` (stereo partly drawn) [Example 455] were 0.188 µM, 0.326 µM and 0.016 µM.
Taken in the same sequence, the figures for `Cc1c(-c2[nH]c3ccc(CC4CNC4)cc3c2C(C)C)cn(C)c(=O)c1C` [Example 417] were 0.076 µM, 2.11 µM and 0.036 µM.
For the compound `Cc1cc(-c2[nH]c3ccc(C4CN(C(=O)CN(C)C)C(C)(C)CO4)cc3c2C(C)C)cn2ncnc12` (single isomer, unassigned) [Example 372, 2-(dimethylamino)-1-(2-(3-isopropyl-2-(8-methyl-[1,2,4]triazolo[1,5-a]pyridin-6-yl)-1H-indol-5-yl)-5,5-dimethylmorpholino)ethanone], the half-inhibitory concentration (IC50) against human TLR7 came out at 0.008 µM; on human TLR9 it was 26.7 µM; against human TLR8 it was 0.011 µM.
As to `Cc1cc(-c2[nH]c3ccc([C@H]4C[C@H]4C(=O)NC4CCC5CNCC54)cc3c2C(C)C)ccn1` (stereo partly drawn) [Example 453], the IC50 against human TLR7 was 0.077 µM; against human TLR9 it was 0.191 µM; on human TLR8 it was 0.066 µM.
As to `Cc1c(-c2[nH]c3ccc(C4CCC(NC5CC5)CC4)cc3c2C(C)C)cn2ncnc2c1C` (stereo not drawn) [Example 17], the IC50 is 0.00073 µM at human TLR7, 3.53 µM against human TLR9 and 0.0007 µM against human TLR8.
Regarding `CC(C)c1c(-c2ccnc3[nH]ncc23)[nH]c2ccc(CC3CCNCC3)cc12` [Example 424], the IC50 came to 0.024 µM against human TLR7, 2.1 µM against human TLR9 and 0.0029 µM against human TLR8.
Taken in the same sequence, the figures for `COc1cc(-c2[nH]c3ccc(C4CN(C)C(C)(C)CO4)cc3c2C(C)C)cn2ncnc12` (stereo not drawn) [Example 377] were 0.002 µM, 4.72 µM and 0.0052 µM.
As to `Cc1c(-c2[nH]c3ccc(C4CCC(N(C)C5COC5)CC4)cc3c2C(C)C)cn2cnnc2c1C` (stereo not drawn) [Example 526], the results for the IC50 against human TLR7, against human TLR9 and on human TLR8 were 0.006 µM, 6.97 µM and 0.034 µM, respectively.

(Values after patent publication US11878975B2, “Substituted indole compounds useful as TLR inhibitors” (BRISTOL-MYERS SQUIBB COMPANY, priority 2017, dated 2024).)
